# Calls of active or inactive are those of the source. The rule behind the calls is not given here.
# Assays:
# [1] = system: HCT-116; test: Decrease in CTD phosphorylation in human HCT-116 cells at 1 to 4 uM incubated for 48 hrs by western blotting analysis; assay type: functional, cell-based; conditions: dose 1-4 µM
# [2] = system: CT26; test: In vivo inhibition of CDK8 in mouse CT26 cells transplanted in […] mouse assessed as downregulation of beta-catenin in tumor at 10 to 40 mg/kg, po daily measured after 21 days; assay type: functional, organism-based; conditions: dose 10-40 mg/kg, time 21.0 day
# [3] = Half life in Sprague-Dawley rat at 2 mg/kg, iv upto 24 hrs by HPLC analysis; assay type: ADME, organism-based; conditions: in vivo
# [4] = system: HCT-116; test: Decrease in WNT-3alpha expression in human HCT-116 cells at 1 to 4 uM incubated for 12hrs by western blotting analysis; assay type: functional, cell-based; conditions: dose 1-4 µM
# [5] = Toxicity in ICR mouse assessed as kidney damage at 1000 mg/kg, using gastric tube by H&E staining assay; assay type: organism-based; conditions: in vivo, po, route ig
# [6] = system: HCT-116; test: Induction of cell cycle arrest in human HCT-116 cells assessed as increase in cells at G1 phase measured after 48 hrs by flow cytometry; assay type: functional, cell-based
# [7] = system: HCT-116; test: Decrease in beta-catenin/TCF/Lef combination expression in human HCT-116 cells at 1 to 4 uM incubated for 24 hrs by western blotting analysis; assay type: functional, cell-based; conditions: dose 1-4 µM
# [8] = Toxicity in ICR mouse assessed as heart damage at 1000 mg/kg, using gastric tube by H&E staining assay; assay type: organism-based; conditions: in vivo, po, route ig
# [9] = Toxicity in ICR mouse assessed as spleen damage at 1000 mg/kg, using gastric tube by H&E staining assay; assay type: organism-based; conditions: in vivo, po, route ig
# [10] = system: HT-29; test: Antiproliferative activity against human HT-29 cells assessed as cell viability incubated for 48 hrs by MTT assay; assay type: functional
# [11] = system: HCT-116; test: Decrease in C-Myc expression in human HCT-116 cells at 1 to 4 uM incubated for 48 hrs by western blotting analysis; assay type: functional, cell-based; conditions: dose 1-4 µM
# [12] = system: HCT-116; test: Decrease in Dvl2 expression in human HCT-116 cells at 1 to 4 uM incubated for 12 hrs by western blotting analysis; assay type: functional, cell-based; conditions: dose 1-4 µM
# [13] = system: HCT-116; test: Decrease in beta-catenin expression in human HCT-116 cells at 1 to 4 uM incubated for 12 hrs by western blotting analysis; assay type: functional, cell-based; conditions: dose 1-4 µM
# [14] = system: HCT-116; test: Potency index, ratio of Sorafenib IC50 to test compound IC50 for antiproliferative activity against human HCT-116 cells incubated for 48 hrs by MTT assay; assay type: functional
structure (smiles),measurement,setting,value
Nc1ccc(Oc2ccc(NC(=O)Nc3cccc(C(F)(F)F)c3)cc2)cn1,Activity,[1],Active
same,Activity,[2],Active
same,half-life,[3],30 min
same,Activity,[4],Active
same,Activity,[5],Non-Toxic
same,Activity,[6],Active
same,Activity,[7],Active
same,Activity,[8],Non-Toxic
same,Activity,[9],Non-Toxic
same,GI50,[10],700 nM
same,Activity,[11],Active
same,Activity,[12],Active
same,Activity,[13],Active
same,Ratio,[14],3.6

# Reference: ChEMBL document CHEMBL5104182, “Design and Synthesis of a 2-Amino-pyridine Derivative as a Potent CDK8 Inhibitor for Anti-colorectal Cancer Therapy” (J Med Chem, 2022)
